Experimental data from article PMC4632086, “Effects and possible mechanisms of action of acacetin on the behavior and eye morphology of Drosophila models of Alzheimer’s disease” (Scientific Reports, 2015).

Key:
GMR < APP/BACE-1 flies [1] = test: Cason's trichrome staining of eye sections (photoreceptor degeneration); format: in vivo, Drosophila melanogaster; conditions: 100, 300, and 500 μM; 5- and 15-day-old males
Procedure: Cason’s trichrome staining was performed, as described by Wang et al.[33] and Perumalsamy et al.[77]. Briefly, the heads of 5- and 15-day-old male GMR < APP/BACE-1 flies, cultured in vials as stated previously, were fixed in a 4% paraformaldehyde buffer solution (pH 7.4) overnight at 4 °C, and paraffin-embedded preparations of the fly heads were then sectioned at 10 μm thickness using a HM 340E rotary microtome (Thermo Scientific Microm, Walldorf, Germany). The sections were dried at 40 °C overnight, subsequently deparaffinized with CitriSolv (Fisher Scientific, Fair Lawn, NJ, USA), and rehydrated using a series of ethanol solutions in phosphate-buffered saline (PBS). The rehydrated paraffin sections were soaked in Carson’s trichrome solution for 15 min, and the slides were gently swashed in tap water and subsequently rinsed three times in distilled water (DW). The excess water was removed with tissue paper, and the samples were mounted using Vectashield H-1000 mounting medium (Vector Laboratories, Burlingame, CA, USA).

recombinant human BACE-1 = molecular target: T1, recombinant human BACE-1 (Homo sapiens, UniProt P56817); test: FRET-based enzyme assay, BACE-1 inhibition; format: biochemical
T1 construct: purchased R&D Systems (Minneapolis, MN, USA)

GMR < APP/BACE-1 flies [2] = test: Light and scanning electron microscopy of adult compound eyes; format: in vivo, Drosophila melanogaster
Procedure: GMR < APP/BACE-1 flies were cultured from the egg stage in polystyrene vials containing standard media supplemented with acacetin (100, 300, and 500 μM) in 0.1% DMSO, based on the preliminary test results. The controls received 0.1% DMSO only. […] The morphology of the compound eyes was observed using an EZ4 HD stereo microscope (×35) equipped with an Integrated 3.0 Mega-Pixel CMOS camera (Leica, Hicksville, NY, USA). The flies with aberrant eye phenotypes were collected, and the number of the flies with dark deposits in the eye was counted.
For SEM, the anesthetized male flies (30 days old) were attached to a copper mount using silver paint as a conducting adhesive, as described previously. They were then put directly into the viewing chamber of an SEM without prior coating, as described by Hartman and Hayes[76]. The external surface morphology of the compound eye was visualized using a Supra 55VP field-emission scanning electron microscope (Carl Zeiss, Jena, Germany) operated at 15 kV.

elav < APP/BACE-1 flies = test: Feeding assay (Acid red intake); format: in vivo, Drosophila melanogaster; conditions: 100, 300, and 500 μM; males; 2 h feeding
Procedure: The adult feeding assay was performed according to the methods of Wang et al.[33] and Bahadorani et al.[79]. Groups of 15 newly emerged male elav < APP/BACE-1 flies were cultured on standard media for 3 days and then starved for 20 h in vials containing three layers of Whatman no. 2 filter paper (Whatman, Maidstone, UK) soaked in DW. The flies were then transferred into vials containing media (with 0.2% Acid red) supplemented with acacetin (100, 300, and 500 μM) in 0.1% DMSO. The controls were fed with media supplemented with 0.2% Acid red and 0.1% DMSO. After 2 h of feeding, the abdomens were isolated and homogenized in 1 mL DW. After centrifugation (5000 rpm, 25 °C, 5 min), the optical density (OD) of the supernatant was measured at 505 nm, because this OD value is considered to index the amount of food intake by flies, as described by Min and Tatar[80]. All treatments were repeated three times using 15 males per replicate.

T1 sequence (P56817 46-501): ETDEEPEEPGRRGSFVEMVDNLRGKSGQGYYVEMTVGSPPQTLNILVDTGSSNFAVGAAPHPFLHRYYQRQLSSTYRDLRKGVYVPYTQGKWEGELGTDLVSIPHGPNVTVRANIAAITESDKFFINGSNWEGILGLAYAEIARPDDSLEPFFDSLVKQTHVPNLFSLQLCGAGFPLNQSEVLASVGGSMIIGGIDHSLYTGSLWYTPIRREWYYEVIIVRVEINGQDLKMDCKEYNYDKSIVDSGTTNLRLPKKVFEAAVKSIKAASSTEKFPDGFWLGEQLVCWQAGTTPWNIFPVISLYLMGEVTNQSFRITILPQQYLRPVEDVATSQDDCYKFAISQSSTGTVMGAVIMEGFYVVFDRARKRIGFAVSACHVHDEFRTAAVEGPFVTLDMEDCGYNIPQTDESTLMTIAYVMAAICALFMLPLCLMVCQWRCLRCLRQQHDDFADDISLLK

SMILES: COc1ccc(-c2cc(=O)c3c(O)cc(O)cc3o2)cc1 [acacetin]
- photoreceptor degeneration (GMR < APP/BACE-1 flies [1]): partially suppressed the photoreceptor degeneration
- fold more potent inhibitor of BACE-1 than maslinic acid (recombinant human BACE-1; based on IC50 values): 5.5 fold
- fold more potent inhibitor of BACE-1 than oleanolic acid (recombinant human BACE-1; based on IC50 values): 4.0 fold
- IC50 (recombinant human BACE-1; pH 4.5, 1 h at 25 °C, read-out: IC50, μM (95% CL)): 88.5 µM
- Slope ± SE (recombinant human BACE-1; slope of concentration-inhibition fit, listed as Natural acacetin): 0.4 ± 0.04
- ratio of female flies with dark deposits in the eyes (GMR < APP/BACE-1 flies [2]; 100, 300, and 500 μM in media, 1-day-old females, vehicle DMSO […]): 6.3–8.0%
- ratio of male flies with dark deposits in the eyes (GMR < APP/BACE-1 flies [2]; 100, 300, and 500 μM in media, 1-day-old males, vehicle DMSO 18.7%): 5.0–7.0%
- ommatidial fusion in the central side of the eyes (GMR < APP/BACE-1 flies [2]; 100, 300, and 500 μM, light microscopy, vs vehicle-fed flies): significantly suppressed ommatidial fusion
- ommatidial fusion at the edges of the eyes (GMR < APP/BACE-1 flies [2]; 300 and 500 μM, light microscopy): ameliorated ommatidial fusion
- feeding (food intake) (elav < APP/BACE-1 flies): did not significantly affect feeding
